Laboratory results published in paper PMC6978363, “Chaperone mediated detection of small molecule target binding in cells” (Nature Communications, 2020).

Legend:
Assay in all cases: biochemical
Conditions in all cases: read-out: % Inhibition (at 10mM)
[1] = biological target: AKT2 (Homo sapiens, UniProt P31751)
[2] = biological target: Axl (Homo sapiens, UniProt P30530)
[3] = biological target: T1, CK1_gamma1 (Homo sapiens, UniProt Q9HCP0)
T1 construct: gene CSNK1G1

[4] = biological target: EphB4 (Homo sapiens, UniProt P54760)
[5] = biological target: ErbB2 (Homo sapiens, UniProt P04626)
[6] = biological target: T2, FAK2 (Homo sapiens, UniProt Q14289)
T2 construct: gene PTK2B

[7] = biological target: Fer (Homo sapiens, UniProt P16591)
[8] = biological target: Fes (Homo sapiens, UniProt P07332)
[9] = biological target: Flt1 (Homo sapiens, UniProt P17948)
[10] = biological target: GRK5 (Homo sapiens, UniProt P34947)
[11] = biological target: GRK7 (Homo sapiens, UniProt Q8WTQ7)
[12] = biological target: T3, Hyl (Homo sapiens, UniProt P42679)
T3 construct: gene MATK

[13] = biological target: IGF1R (Homo sapiens, UniProt P08069)
[14] = biological target: IRAK4 (Homo sapiens, UniProt Q9NWZ3)
[15] = biological target: JAK2 (Homo sapiens, UniProt O60674)
[16] = biological target: MAP4K4 (Homo sapiens, UniProt O95819)
[17] = biological target: MAPKAPK3 (Homo sapiens, UniProt Q16644)
[18] = biological target: T4, MRCK_alpha (Homo sapiens, UniProt Q5VT25)
T4 construct: gene CDC42BPA

[19] = biological target: T5, MSK1 (Homo sapiens, UniProt O75582)
T5 construct: gene RPS6KA5

[20] = biological target: T6, MST2 (Homo sapiens, UniProt Q13188)
T6 construct: gene STK3

[21] = biological target: T7, MST4 (Homo sapiens, UniProt Q9P289)
T7 construct: gene STK26

[22] = biological target: MuSK (Homo sapiens, UniProt O15146)
[23] = biological target: NEK2 (Homo sapiens, UniProt P51955)
[24] = biological target: T8, NIM1 (Homo sapiens, UniProt Q8IY84)
T8 construct: gene NIM1K

[25] = biological target: T9, PAK7 (Homo sapiens, UniProt Q9P286)
T9 construct: gene PAK5

[26] = biological target: T10, PKA (Homo sapiens, UniProt P17612)
T10 construct: gene PRKACA

[27] = biological target: T11, PKC_iota (Homo sapiens, UniProt P41743)
T11 construct: gene PRKCI

[28] = biological target: T12, PKC_theta (Homo sapiens, UniProt Q04759)
T12 construct: gene PRKCQ

[29] = biological target: T13, PKD1 (Homo sapiens, UniProt Q15139)
T13 construct: gene PRKD1

[30] = biological target: T14, PRKAA2_B1_G2 (Homo sapiens, UniProt P54646)
T14 construct: gene PRKAA2

[31] = biological target: T15, PRKAA2_B2_G3 (Homo sapiens, UniProt P54646)
T15 construct: gene PRKAA2

[32] = biological target: T16, RSK1 (Homo sapiens, UniProt Q15418)
T16 construct: gene RPS6KA1

[33] = biological target: Ret (Homo sapiens, UniProt P07949)
[34] = biological target: T17, Ron (Homo sapiens, UniProt Q04912)
T17 construct: gene MST1R

[35] = biological target: SIK2 (Homo sapiens, UniProt Q9H0K1)
[36] = biological target: Src (Homo sapiens, UniProt P12931)
[37] = biological target: T18, TrkA (Homo sapiens, UniProt P04629)
T18 construct: gene NTRK1

[38] = biological target: T19, ZIPK (Homo sapiens, UniProt O43293)
T19 construct: gene DAPK3

T13 sequence (Q15139 whole entry): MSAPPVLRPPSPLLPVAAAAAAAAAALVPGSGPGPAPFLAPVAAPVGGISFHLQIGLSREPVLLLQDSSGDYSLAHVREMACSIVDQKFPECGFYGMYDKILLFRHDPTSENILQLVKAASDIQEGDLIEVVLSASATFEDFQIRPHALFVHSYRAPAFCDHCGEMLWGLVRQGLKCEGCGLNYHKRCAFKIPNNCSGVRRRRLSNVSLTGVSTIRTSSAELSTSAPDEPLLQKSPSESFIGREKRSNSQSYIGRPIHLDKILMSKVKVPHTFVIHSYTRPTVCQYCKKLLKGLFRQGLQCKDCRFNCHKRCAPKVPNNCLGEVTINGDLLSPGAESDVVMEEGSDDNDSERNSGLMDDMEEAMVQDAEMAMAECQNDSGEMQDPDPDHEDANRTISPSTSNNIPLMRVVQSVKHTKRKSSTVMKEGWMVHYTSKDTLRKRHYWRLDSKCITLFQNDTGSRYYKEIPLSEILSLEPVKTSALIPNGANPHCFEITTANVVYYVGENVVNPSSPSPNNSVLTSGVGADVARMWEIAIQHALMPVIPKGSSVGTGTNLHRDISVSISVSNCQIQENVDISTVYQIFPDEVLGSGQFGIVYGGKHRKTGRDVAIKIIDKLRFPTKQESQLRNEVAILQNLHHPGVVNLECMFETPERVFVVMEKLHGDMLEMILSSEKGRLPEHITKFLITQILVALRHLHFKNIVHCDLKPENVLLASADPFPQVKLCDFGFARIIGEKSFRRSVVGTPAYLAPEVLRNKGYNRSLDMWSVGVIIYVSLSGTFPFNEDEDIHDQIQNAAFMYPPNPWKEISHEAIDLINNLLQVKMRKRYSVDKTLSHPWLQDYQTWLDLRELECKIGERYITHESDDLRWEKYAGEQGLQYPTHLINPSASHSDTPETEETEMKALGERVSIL
Chain of AKT2 (P31751 whole entry): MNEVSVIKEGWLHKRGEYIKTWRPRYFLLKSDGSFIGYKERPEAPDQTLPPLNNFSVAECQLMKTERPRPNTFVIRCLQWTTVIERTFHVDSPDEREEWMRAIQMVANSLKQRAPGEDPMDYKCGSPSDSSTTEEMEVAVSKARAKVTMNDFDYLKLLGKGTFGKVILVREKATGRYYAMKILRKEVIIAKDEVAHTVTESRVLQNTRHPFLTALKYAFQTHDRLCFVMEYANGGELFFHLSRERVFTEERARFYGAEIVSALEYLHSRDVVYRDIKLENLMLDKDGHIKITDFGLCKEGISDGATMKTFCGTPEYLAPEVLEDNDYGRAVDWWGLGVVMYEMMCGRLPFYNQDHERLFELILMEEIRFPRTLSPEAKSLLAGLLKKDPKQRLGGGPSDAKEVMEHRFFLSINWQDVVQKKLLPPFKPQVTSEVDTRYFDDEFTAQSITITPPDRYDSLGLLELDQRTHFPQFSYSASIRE
T5 sequence (O75582 whole entry): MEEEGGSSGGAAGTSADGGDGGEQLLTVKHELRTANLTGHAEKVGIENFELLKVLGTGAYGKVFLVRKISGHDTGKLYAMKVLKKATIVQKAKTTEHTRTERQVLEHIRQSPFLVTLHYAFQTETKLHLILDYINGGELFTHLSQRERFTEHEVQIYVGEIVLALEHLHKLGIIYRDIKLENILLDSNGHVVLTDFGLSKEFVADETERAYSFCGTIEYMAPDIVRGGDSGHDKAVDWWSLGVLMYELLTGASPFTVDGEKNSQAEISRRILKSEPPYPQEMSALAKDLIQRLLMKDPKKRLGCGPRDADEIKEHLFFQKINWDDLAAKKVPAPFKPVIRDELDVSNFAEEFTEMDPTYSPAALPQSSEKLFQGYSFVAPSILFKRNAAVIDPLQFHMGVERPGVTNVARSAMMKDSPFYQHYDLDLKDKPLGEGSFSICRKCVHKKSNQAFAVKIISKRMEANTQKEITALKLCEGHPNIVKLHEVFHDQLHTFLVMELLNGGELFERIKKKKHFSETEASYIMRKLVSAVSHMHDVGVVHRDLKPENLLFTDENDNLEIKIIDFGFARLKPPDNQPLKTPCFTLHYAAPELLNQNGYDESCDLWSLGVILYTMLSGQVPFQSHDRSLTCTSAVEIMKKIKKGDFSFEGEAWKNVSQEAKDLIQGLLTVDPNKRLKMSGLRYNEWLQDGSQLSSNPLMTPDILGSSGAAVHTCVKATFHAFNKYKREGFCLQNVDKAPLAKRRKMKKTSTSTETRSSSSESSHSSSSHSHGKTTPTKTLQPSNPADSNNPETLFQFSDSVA
Chain of IGF1R (P08069 whole entry): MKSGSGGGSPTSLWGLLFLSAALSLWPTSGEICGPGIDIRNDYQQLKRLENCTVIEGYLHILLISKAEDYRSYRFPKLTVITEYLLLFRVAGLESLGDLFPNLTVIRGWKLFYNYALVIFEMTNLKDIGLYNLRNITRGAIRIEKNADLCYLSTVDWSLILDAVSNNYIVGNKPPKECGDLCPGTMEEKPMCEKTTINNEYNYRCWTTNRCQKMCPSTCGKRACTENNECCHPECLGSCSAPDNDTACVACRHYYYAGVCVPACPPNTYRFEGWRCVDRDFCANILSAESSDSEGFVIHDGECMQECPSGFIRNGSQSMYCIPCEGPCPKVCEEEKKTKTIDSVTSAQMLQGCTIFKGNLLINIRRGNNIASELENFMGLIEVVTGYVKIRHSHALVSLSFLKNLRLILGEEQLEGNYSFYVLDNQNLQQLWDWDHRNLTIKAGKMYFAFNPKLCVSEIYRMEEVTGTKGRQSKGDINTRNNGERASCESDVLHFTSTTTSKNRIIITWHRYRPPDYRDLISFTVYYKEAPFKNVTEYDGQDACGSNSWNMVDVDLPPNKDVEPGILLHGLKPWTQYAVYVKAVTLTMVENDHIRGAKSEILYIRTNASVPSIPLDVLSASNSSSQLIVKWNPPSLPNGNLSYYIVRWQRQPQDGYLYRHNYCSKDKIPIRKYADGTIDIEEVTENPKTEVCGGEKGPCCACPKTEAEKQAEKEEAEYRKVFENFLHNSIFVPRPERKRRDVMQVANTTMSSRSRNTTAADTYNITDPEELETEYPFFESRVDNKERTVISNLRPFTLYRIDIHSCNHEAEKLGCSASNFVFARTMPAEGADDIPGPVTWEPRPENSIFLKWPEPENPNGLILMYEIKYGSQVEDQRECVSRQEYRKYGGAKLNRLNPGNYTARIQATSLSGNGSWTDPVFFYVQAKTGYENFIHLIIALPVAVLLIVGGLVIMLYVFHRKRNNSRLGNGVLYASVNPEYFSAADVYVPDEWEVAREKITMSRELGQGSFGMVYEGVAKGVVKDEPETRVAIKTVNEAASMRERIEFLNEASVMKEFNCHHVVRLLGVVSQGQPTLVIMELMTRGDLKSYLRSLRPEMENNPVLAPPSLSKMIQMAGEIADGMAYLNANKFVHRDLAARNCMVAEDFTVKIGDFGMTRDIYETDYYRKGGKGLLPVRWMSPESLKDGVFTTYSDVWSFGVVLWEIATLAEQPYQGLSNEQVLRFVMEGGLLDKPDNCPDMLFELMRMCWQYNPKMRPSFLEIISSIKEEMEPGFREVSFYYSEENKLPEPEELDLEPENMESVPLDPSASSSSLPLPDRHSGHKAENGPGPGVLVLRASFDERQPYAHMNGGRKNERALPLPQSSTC
Chain of GRK5 (P34947 whole entry): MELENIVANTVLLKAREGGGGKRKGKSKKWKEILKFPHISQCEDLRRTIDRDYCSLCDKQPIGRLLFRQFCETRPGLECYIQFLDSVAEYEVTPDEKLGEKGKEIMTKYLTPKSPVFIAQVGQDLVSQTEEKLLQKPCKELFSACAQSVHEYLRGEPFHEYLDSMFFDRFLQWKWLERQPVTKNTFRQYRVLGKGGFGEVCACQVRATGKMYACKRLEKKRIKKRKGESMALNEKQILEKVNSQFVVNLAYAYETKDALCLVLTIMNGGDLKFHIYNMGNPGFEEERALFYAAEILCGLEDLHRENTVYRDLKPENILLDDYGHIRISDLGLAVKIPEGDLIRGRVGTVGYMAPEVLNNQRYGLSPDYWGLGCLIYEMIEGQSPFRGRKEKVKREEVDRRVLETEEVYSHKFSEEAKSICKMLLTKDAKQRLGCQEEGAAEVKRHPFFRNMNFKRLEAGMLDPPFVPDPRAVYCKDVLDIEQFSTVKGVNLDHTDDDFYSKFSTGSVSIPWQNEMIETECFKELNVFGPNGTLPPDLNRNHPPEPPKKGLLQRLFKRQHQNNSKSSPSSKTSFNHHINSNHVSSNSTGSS
Chain of Src (P12931 whole entry): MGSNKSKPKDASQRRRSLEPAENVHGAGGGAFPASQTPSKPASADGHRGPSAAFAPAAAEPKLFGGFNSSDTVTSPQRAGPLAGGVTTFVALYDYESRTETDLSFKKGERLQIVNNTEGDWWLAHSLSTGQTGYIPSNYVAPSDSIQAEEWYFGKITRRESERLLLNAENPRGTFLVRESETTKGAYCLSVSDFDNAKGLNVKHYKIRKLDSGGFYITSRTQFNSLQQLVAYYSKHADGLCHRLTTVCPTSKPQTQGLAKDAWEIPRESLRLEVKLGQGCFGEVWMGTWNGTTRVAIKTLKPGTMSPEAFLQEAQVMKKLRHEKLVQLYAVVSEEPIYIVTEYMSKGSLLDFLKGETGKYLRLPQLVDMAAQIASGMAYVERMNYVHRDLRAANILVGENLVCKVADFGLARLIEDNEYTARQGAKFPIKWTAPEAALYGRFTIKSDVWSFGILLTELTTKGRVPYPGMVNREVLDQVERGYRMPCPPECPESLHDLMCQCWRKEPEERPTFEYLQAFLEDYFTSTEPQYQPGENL
Chain of MAPKAPK3 (Q16644 whole entry): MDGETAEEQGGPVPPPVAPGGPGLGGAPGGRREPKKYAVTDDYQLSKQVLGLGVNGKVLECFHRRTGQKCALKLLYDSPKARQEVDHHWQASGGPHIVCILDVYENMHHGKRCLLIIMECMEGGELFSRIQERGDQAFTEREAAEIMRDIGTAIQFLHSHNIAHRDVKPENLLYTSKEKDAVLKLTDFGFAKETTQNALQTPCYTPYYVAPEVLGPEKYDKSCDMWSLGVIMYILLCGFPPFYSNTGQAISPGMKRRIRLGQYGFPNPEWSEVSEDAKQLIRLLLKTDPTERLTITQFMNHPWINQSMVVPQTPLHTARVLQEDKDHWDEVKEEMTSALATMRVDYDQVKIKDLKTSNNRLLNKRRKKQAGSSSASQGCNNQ

inhibition [1]: 5.5%
inhibition [2]: 5%
inhibition [3]: 2.5%
inhibition [4]: 8%
inhibition [5]: 99%
inhibition [6]: 4%
inhibition [7]: 12.5%
inhibition [8]: 15.5%
inhibition [9]: -1.5%
inhibition [10]: -4.5%
inhibition [11]: 5.5%
inhibition [12]: -2.5%
inhibition [13]: 5%
inhibition [14]: 6%
inhibition [15]: 2%
inhibition [16]: -0.5%
inhibition [17]: 14.5%
inhibition [18]: -3.5%
inhibition [19]: 2.5%
inhibition [20]: 6%
inhibition [21]: -2.5%
inhibition [22]: 17.5%
inhibition [23]: 4%
inhibition [24]: 8.5%
inhibition [25]: 5.5%
inhibition [26]: 2.5%
inhibition [27]: 8%
inhibition [28]: 12%
inhibition [29]: 76%
inhibition [30]: 4.5%
inhibition [31]: 9.5%
inhibition [32]: 14.5%
inhibition [33]: 15.5%
inhibition [34]: 28%
inhibition [35]: 9.5%
inhibition [36]: 37.5%
inhibition [37]: 29%
inhibition [38]: 7%
SMILES: CC(C)(O)CC(=O)NCCn1ccc2ncnc(Nc3ccc(Oc4cccc(C(F)(F)F)c4)c(Cl)c3)c21 [TAK-285]
